Results on 4 compounds are retold here after patent publication US11839698B2, “Drug composition and coating” (priority 2014, dated 2023).

Data set [1] is described as follows: Test Method D: stability to ethylene oxide sterilization (paclitaxel recovery by UPLC). The data set is classed as physicochemical. The note with it: additive formulated with paclitaxel as solid coating.
Description: A sample of a composition of the invention or a coated device of the invention was placed in a breathable polyethylene pouch (e.g. a Tyvek pouch) and subjected to at least 12 hours preconditioning at 43° C. and 65% relative humidity followed by 12 hours exposure to 600 mg/L ethylene oxide at 52° F. and 25% relative humidity. The chamber was then aerated at 32° F. for at least 12 hours until ethylene oxide concentration was less than 0.25 ppm.
After sterilization, the paclitaxel content on the device or the paclitaxel content of the composition was assessed (through device extraction for coated medical devices i.e. immersion of the whole device in an extraction solvent) using UPLC quantification as described in the evaluation methods section. For each device or composition, the percentage drug recovery after sterilization was calculated by normalizing the extracted paclitaxel amount by the theoretical paclitaxel amount loaded on the device, or present in the composition pre-sterilization.
Approximately 30 mg of excipient was weighed into a 7 mL glass vial and 6 mL of 75/25 v/v acetone/water was added. A small stirrer bar was added to each vial and all samples were stirred overnight at room temperature to ensure full dissolution. […] Percent paclitaxel recovery was calculated by normalizing to either theoretical initial loading or pre-sterilized samples.
The conditions of data set [2]: in acetone, ethanol and aqueous mixtures thereof. An excerpt: As discussed in further detail below, coatings of the invention can be prepared by pipetting a solution containing therapeutic agent and excipient onto the device to be coated. […] Thus, in one embodiment the organic additive is not thiamine-HCl.
A short description of data set [3]: Early experiments on stability of organic additive in solution. It is filed as physicochemical. An excerpt: Thus, vanillin is not suitable as an organic additive for the present invention.

Counter-ions that a name gives are not always drawn.

`NC(=O)c1cccnc1` [niacinamide]: the “effect of additive on paclitaxel under ethylene oxide sterilization” value in data set [1] is on record as “nearly complete paclitaxel degradation”.

For the compound `O=C([O-])c1ccccc1O.[Na+]` [sodium salicylate], the “effect of additive on paclitaxel under ethylene oxide sterilization” value in data set [1] is listed as “cause degradation of the paclitaxel”.

As for `Cc1ncc(C[n+]2csc(CCO)c2C)c(N)n1` [thiamine-HCl], the solubility of additive result in data set [2] is recorded as “poor solubility”.

Turning to `COc1cc(C=O)ccc1O` [vanillin], in data set [3], the “stability of additive in solution” value was “easily degraded in solution”.
